Assay results taken from publication PMC7762786, “The discovery of novel antitrypanosomal 4-phenyl-6-(pyridin-3-yl)pyrimidines” (European Journal of Medicinal Chemistry, 2021).

Legend:
[1] = target: T1, CYP1A2 (Homo sapiens, UniProt P05177); assay: Cytochrome P450 inhibition assay (P450-Glo); type: in vitro ADME; details: 10 μM, result in words
T1 construct: purchased Corning; host or cells: baculovirus infected insect cells (BTI-TN-5B1-4)
T1 sequence (P05177 2-516 limits assumed): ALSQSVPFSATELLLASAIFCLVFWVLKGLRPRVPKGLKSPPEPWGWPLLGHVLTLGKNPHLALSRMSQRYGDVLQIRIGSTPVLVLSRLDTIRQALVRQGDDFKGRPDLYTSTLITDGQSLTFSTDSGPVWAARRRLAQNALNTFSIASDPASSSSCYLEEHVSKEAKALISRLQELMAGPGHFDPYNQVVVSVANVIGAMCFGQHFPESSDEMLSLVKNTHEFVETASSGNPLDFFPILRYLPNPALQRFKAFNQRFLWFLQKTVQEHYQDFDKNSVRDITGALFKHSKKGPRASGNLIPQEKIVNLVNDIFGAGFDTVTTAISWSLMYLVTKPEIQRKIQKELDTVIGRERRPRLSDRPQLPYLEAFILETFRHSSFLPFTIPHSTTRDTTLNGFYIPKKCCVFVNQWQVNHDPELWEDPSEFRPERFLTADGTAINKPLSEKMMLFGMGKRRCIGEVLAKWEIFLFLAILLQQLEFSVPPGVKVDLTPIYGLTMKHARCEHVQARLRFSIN
Protocol: (§1) Cytotoxicity was also determined against 786-O and A549 cells.
(§2) Experiments for determining pre-clinical in vitro ADME-Tox activities were performed as described by Moraes et al. and also described in the following sections 4.3.2.1 to 4.3.2.4.
(§3) The luminescence based P450-Glo™ (Promega Corp.) assay was used in 384-well assay format.
(§4) The cytochrome P450 (CYP) panel included microsomal preparations of cytochromes P450 1A2, 2C9, 2C19, 2D6, and 3A4 (Corning) from baculovirus infected insect cells (BTI-TN-5B1−4) which express cytochromes P450 and cytochrome c reductase (and cytochrome b5 for 3A4). Compounds were added (100 nL/well in 1% DMSO v/v) using the Echo 550® Liquid Handler followed by addition of 5 μL/well of CYP450/substrate mixture. Following incubation for 30 min at 37 °C, the reaction was initiated by the addition of 5 μL/well of the NADPH regeneration mixture. By the end of a further 30 min incubation (37 °C), the CYP450 reaction was stopped and the luciferase reaction was initiated by the addition of 10 μL/well of the luciferin detection reagent, followed by an additional 30 min of incubation at 37 °C. The luminescence signal was detected using an Infinite® M1000 PRO plate reader. […] The raw data were normalised relative to the positive and negative controls yielding the % inhibition for each compound.

[2] = target: T2, CYP2C19 (Homo sapiens, UniProt P33261); assay: Cytochrome P450 inhibition assay (P450-Glo); type: in vitro ADME; details: 10 μM, result in words
T2 construct: purchased Corning; host or cells: baculovirus infected insect cells (BTI-TN-5B1-4)
T2 sequence (P33261 whole entry): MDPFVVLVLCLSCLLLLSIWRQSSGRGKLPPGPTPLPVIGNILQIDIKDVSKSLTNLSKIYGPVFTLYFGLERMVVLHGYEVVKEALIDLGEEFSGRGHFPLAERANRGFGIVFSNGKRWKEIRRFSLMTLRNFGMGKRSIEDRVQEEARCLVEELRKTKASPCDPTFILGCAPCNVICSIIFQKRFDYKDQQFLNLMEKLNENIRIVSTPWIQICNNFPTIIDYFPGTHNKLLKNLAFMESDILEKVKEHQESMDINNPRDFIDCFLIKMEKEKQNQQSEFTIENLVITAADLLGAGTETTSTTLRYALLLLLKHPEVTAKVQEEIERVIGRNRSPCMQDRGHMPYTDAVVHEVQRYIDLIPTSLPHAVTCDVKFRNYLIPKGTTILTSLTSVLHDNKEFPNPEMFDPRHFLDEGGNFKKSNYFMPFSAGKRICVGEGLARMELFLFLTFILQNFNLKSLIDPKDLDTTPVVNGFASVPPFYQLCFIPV
Protocol: as §1, §2, §3, §4

[3] = target: T3, HDAC1 (Homo sapiens, UniProt Q13547); assay: Histone deacetylase assay (HDAC-Glo I/II); type: biochemical; details: 10 μM, result in words
T3 construct: purchased BPS Bioscience (San Diego, USA)
T3 sequence (Q13547 whole entry): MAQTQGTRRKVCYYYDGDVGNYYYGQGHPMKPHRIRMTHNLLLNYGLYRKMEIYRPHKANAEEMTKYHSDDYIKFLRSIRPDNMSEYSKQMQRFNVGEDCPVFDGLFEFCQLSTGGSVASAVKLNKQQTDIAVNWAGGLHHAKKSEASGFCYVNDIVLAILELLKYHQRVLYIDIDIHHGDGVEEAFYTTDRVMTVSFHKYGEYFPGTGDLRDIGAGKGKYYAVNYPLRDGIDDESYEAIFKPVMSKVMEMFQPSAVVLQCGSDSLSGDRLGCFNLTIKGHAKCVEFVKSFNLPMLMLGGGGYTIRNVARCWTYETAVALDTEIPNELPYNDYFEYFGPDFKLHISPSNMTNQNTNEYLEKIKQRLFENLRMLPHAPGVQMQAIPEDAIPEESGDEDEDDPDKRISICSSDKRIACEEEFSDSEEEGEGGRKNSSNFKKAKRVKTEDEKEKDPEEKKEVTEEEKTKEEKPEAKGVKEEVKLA
Protocol: as §1, §2
(§5) Inhibition of histone deacetylase (HDAC) enzymes was determined using the bioluminogenic HDAC-Glo™ I/II assay (Promega Corp.) in 384-well assay format. Human recombinant HDAC enzymes were purchased from BPS Bioscience (San Diego, USA) and the standard inhibitor trichostatin A (Sigma-Aldrich) was dissolved to a yield stock solution in 100% v/v DMSO (stored at −20 °C). Plate handling was performed using a Cell Explorer HTS platform equipped with an Echo 550® Liquid Handler and Multidrop liquid handling system with luminescence measurements taken using an EnVision® multilabel 2103 reader. Compounds were added to plates (100 nL/well; 1% v/v DMSO) and the HDAC-Glo™ I/II assay reagent was prepared by (i) rehydration of lyophilised HDAC-Glo™ I/II substrate (with an acetylated peptide concentration of 100 μM) in 10 mL HDAC-Glo™ I/II assay buffer and (ii) addition of 10 μL of developer reagent (containing trypsin). The microtiter plates were mixed briefly by orbital shaking (500–700 rpm) and luminescence was measured at steady-state signal:background which was achieved after 20 min. The raw data were normalised relative to the positive and negative controls yielding the % inhibition for each compound.

[4] = target: T4, HDAC3 (Homo sapiens, UniProt O15379); assay: Histone deacetylase assay (HDAC-Glo I/II); type: biochemical; details: 10 μM, result in words
T4 construct: purchased BPS Bioscience (San Diego, USA)
T4 sequence (O15379 whole entry): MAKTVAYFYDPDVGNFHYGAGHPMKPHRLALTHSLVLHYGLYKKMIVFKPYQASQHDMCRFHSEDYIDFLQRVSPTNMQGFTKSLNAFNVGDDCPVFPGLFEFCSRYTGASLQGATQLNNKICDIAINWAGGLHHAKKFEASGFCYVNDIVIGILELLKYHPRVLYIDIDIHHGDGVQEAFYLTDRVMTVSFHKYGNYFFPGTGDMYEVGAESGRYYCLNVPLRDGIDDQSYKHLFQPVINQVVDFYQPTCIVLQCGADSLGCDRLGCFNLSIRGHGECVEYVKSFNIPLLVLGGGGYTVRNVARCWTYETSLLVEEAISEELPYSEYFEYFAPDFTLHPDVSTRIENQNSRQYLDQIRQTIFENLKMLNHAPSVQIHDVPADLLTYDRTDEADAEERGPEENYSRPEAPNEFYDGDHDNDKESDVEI
T4 sequence (Q9Y618 395-489 partner limits assumed): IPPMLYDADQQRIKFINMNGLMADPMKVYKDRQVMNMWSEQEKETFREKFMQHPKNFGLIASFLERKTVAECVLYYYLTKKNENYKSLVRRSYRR
Protocol: as §1, §2, §5

[5] = target: T5, HDAC6 (Homo sapiens, UniProt Q9UBN7); assay: Histone deacetylase assay (HDAC-Glo I/II); type: biochemical; details: 10 μM, result in words
T5 construct: purchased BPS Bioscience (San Diego, USA)
T5 sequence (Q9UBN7 1-1215): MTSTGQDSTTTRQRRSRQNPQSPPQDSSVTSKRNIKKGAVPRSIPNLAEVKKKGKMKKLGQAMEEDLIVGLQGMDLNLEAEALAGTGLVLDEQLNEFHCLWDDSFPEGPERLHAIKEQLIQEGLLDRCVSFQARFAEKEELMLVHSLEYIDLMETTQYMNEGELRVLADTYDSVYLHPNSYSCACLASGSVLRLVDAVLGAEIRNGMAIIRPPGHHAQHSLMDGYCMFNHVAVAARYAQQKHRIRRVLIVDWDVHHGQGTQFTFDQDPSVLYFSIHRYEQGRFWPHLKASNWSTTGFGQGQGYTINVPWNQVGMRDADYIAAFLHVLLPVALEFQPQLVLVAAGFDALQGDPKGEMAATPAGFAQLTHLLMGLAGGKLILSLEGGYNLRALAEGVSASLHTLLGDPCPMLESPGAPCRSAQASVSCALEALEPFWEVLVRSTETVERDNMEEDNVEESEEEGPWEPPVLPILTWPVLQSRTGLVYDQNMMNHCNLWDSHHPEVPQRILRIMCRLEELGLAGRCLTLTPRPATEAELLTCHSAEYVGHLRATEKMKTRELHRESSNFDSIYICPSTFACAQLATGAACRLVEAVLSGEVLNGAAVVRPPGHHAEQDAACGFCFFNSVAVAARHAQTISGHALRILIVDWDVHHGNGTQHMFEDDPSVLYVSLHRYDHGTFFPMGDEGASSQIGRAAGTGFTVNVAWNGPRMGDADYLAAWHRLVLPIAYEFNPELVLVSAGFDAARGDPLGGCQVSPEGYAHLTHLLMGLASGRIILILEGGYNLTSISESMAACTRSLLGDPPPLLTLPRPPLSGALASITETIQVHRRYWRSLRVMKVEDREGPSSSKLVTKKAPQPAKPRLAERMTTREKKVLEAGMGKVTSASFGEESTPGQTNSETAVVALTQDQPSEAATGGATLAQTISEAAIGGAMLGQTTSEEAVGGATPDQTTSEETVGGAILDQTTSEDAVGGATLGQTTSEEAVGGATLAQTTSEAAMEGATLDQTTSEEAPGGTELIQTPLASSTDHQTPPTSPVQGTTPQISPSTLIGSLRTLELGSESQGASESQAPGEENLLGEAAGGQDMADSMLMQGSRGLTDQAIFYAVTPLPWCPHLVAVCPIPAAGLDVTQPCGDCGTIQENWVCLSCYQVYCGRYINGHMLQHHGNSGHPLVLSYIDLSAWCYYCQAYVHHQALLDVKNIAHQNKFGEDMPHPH
Protocol: as §1, §2, §5

For `COc1ccccc1-c1cc(-c2cccnc2)nc(N)n1` [Compound 13, 4-(2-Methoxyphenyl)-6-(pyridin-3-yl)pyrimidin-2-amine], the CYP1A2 inhibition [1] was “inhibitory activity”, the CYP2C19 inhibition [2] was “some inhibition” and the HDAC1 inhibition [3] was “No inhibition”. The HDAC3 inhibition [4] was “No inhibition”, the HDAC6 inhibition [5] was “No inhibition” and the melting point was 108 to 110 °C.
